Assay results taken from US20200375929A1, “METHODS AND COMPOSITIONS FOR THE TREATMENT OF DISEASES ASSOCIATED WITH CANCER, INFLAMMATION, OR IMMUNE RESPONSE” (Washington University, priority 2017, published 2020).
Entries after “also recorded” stand apart in the source; their conditions may differ.

Experiments:
Assay type in all cases: cell-based, mouse
[1] = system: Nfkbiz mRNA; experiment: Nfkbiz (Ikb-ζ) mRNA expression in BMDMs (qPCR); conditions: DI 12 h, then LPS
Method: (§1) BMDM were prepared from 6- to 12-week-old mice as described 1 and cultured in RMPI-1640 medium supplemented with 10% fetal bovine serum (FBS), 2 mM L-glutamine, and 100 U/mL penicillin-streptomycin and mouse recombinant M-CSF ([…], Peprotech). For experiments, cells were seeded at concentration 10^6 cells/mL in tissue culture plates of various formats. The cells were treated with DI (250 μM (unless stated otherwise), cat #592498, Sigma), DMF (50 μM (unless stated otherwise), cat #242926, Sigma), 3-(ethoxycarbonyl)but-3-enoic acid (3MI, 5 μM, Aris Pharmaceuticals Inc.), 4-ethoxy-2-methylene-4-oxobutanoic acid (MI, Aris Pharmaceuticals Inc.) for 12 h and activated with lipopolysaccharide (LPS; 100 ng/mL; E. coli 0111:B4, Sigma) for 1 h or as indicated. In some experiments cells were stimulated with combination of LPS (20 ng/mL) and IFN-γ (50 ng/mL; Peprotech). In some experiments cells were treated with α-tocopherol (AT, 10 μM; Sigma), MitoTEMPO (MT, 500 μM; Sigma), N-acetylcysteine (NAC, 1 mM, Sigma), ethylester of GSH (EtGSH; 1 mM, Santa Cruz) or buthionene sulfoximine (BSO, 500 μM, Sigma) alone or in combination with DI for 12 h. […]
RNA from cultured cells was isolated using a Total RNA I kit (OMEGA). […] Threshold cycle (CT) values for each sample were determined by automated threshold analysis. […]

[2] = system: STAT3; experiment: STAT3 activation in LPS-stimulated BMDMs (western blot)
Method: as §1
(§2) Cells were lysed in RIPA Lysis Buffer System (Santa Cruz) and heat-denatured at 95° C. for 5 min in reducing sample buffer (BioRad). […] Non-specific binding was blocked with 5% skim milk (or 5% BSA when phospho-proteins were analyzed), and membranes were probed with primary antibodies specific to Nrf2 (#12721), HO-1 (#70081), IκBζ (mouse specific, #93726), IκBζ(#9244), ATF3 (#D2Y5W), IRAK1 (#4504; sensitivity of IRAK1 detection diminishes upon IRAK1 K63 ubiquitination), phospho-IKK (Ser176/180, #2697), p62/SQSTM1 (#5114), phospho-eIF2α (Ser51, #9721), eIF2α (#5324) from Cell Signaling; GAPDH (sc-25778), IκBα (sc-1643), ATF3 (sc-188), SDHA (sc-166909) from Santa Cruz; NQO1 (ab28947) from Abeam, followed by incubation with anti-rabbit-HRP (1:10,000; sc-2030) or anti-mouse-HRP (1:10,000; sc-2031) from Santa Cruz and Clarity western ECL substrate (Bio-Rad). […]

[3] = system: BMDMs / BV2 cells; experiment: Intracellular ROS by flow cytometry; conditions: DI 250 μM
Method: For ROS measurements, cells were treated with DI (250 μM), loaded with 10 μM CM-H2DCFDA (Invitrogen) at RT for 30 min in Hank's balanced salt solution (HBSS). After incubation, cell were rinsed with warm HBSS, harvested and directly analyzed. Mean fluorescent intensity (MFI) of living cells is shown. For Nfkbiz 3′UTR reporter analysis GFP signal was determined in live cells. For analysis of cell viability cells were stained with propidium iodide (1 μg/mL) and percentage of negative cells was plotted. Cells were acquired on CantoII or LSRII flow cytometers (Becton Dickinson), and data were analyzed with FlowJo v.9.5.2 software (Tree Star). For gating strategy see e.g., FIG. 25.

[4] = system: ATF3; experiment: ATF3 protein expression (western blot); conditions: BMDMs, DI, also on Nrf2−/− background
Method: as §1, §2

In the case of `C=C(CC(=O)OC)C(=O)OC` [DI, dimethyl itaconate], the “Ikb-ζ (Nfkbiz) mRNA level” value [1] is reported as “only moderate effect; also recorded: not changed”, the “STAT3 activation (Y705 phosphorylation)” value ([2]; BMDMs, 12 h pretreatment) is reported as “inhibits STAT3 activation” and the “inhibition of STAT3 activation, Nrf2 KO compared with WT” value ([2]; Nrf2 KO BMDMs, DI 250 μM 12 h) is reported as “no differences in extent of inhibition of STAT3 activation”. For the same compound, the “intracellular ROS production” value [3] was “increased intracellular ROS; also recorded: increase in ROS generation” and the ATF3 protein [4] was “upregulated”.
